Measured values published in patent publication US12264134B2 (Merck Sharp & Dohme LLC, priority 2018, dated 2025).
pIC50: −log10 of the molar value.

molecular target: IDO1 (Homo sapiens, UniProt P14902); experiment: IDO1 Cellular Assay in HeLa Cells Stimulated with IFNγ; type: cell-based; settings: read-out: HeLa Cell Potency, IC50
Procedure: IDO1 Cellular Assay in HeLa Cells Stimulated with IFNγ
HeLa cells were cultured in complete HeLa culture medium (90% EMEM, 10% heat-inactivated fetal bovine serum) and expanded to about 1×10^9 cells. The cells were then collected and frozen down at 1×10^7 cells/vial in 1 mL frozen medium (90% complete HeLa culture medium, 10% DMSO).
Compounds to be tested were serially diluted in ten 3-fold steps in DMSO starting from 10 mM DMSO stocks in Echo low volume plate(s). Compound dilutions or DMSO alone were then dispensed from the dilution plate(s) into Greiner black 384-well assay plate(s) (catalog #781086, 50 nL/well) using an Echo 550 acoustic liquid handler (Labcyte).
Frozen HeLa cells were thawed and transferred into HeLa assay medium (99% complete HeLa culture medium, 1% Pen/Strep) with 20 mL medium/vial of cells. The cells were spun down at 250 g in a table top centrifuge for 5 min and suspended in same volume of HeLa assay medium. The cells were then counted and adjusted to a density of 2×10^5 cells/mL in HeLa assay medium. Sterile L-tryptophan were added to the cells with final concentration of 300 uM L-tryptophan. A small aliquot (2 mL/plate) of HeLa cells were set aside and were not treated with IFNγ, to serve as the Max-E control.
HeLa cells with and without IFNγ were dispensed to the respective wells of 384-well assay plates containing the compounds. The plates were incubated for about 48 hours at a 37° C., 5% CO2 incubator. Afterwards, 12 μL of 0.5 M methyl isonipecotate in dimethyl sulfoxide were added into each well and the plates were sealed and incubated at 37° C. without CO2 overnight. The plates were centrifuged for 1 min at 200×g. The resulting fluorescence was measured in a Spectramax plate reader (Molecular Devices) with a 400 nm excitation filter and a 510 nm emission filter.
The fluorescence intensity of each well was corrected for the background observed in wells with non-IFNγ-treated cells and was expressed as a fraction of the intensity observed in wells of IFNγ-treated cells and DMSO only. Potencies were calculated by linear least squares fit to the four parameter logistic IC50 equation.

Chain of IDO1 (P14902 whole entry): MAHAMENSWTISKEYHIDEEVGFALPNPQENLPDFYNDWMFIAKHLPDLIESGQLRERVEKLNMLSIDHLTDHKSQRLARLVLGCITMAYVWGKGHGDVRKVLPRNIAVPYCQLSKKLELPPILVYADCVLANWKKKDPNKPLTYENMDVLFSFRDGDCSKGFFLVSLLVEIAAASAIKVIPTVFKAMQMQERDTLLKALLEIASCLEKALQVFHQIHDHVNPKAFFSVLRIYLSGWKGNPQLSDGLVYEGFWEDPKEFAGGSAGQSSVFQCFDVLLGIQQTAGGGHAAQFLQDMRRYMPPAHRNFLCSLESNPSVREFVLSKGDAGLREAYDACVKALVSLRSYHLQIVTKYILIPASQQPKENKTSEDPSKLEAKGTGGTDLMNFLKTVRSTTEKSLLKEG

With `C[C@@H]1CN(C(=O)c2nn(CC(=O)N3CCN(c4ccc5c(c4)CCO5)CC3)c3c2CCC3)C[C@H](C)O1` [Example 31, 1-[4-(2,3-dihydro-1-benzofuran-5-yl)piperazin-1-yl]-2-{3-[(2R,6S)-2,6-dimethylmorpholine-4-carbonyl]-5,6-dihydrocyclopenta[c]pyrazol-1(4H)-yl}ethan-1-one] as the molecule, how does the pIC50 read?
The pIC50 was 6.75.

How did the pIC50 turn out when `C[C@@H]1CN(C(=O)c2nn(CC(=O)N3CCN(c4cccc(F)c4Cl)CC3)c3c2CCC3)C[C@H](C)O1` [Example 32, 1-[4-(2-chloro-3-fluorophenyl)piperazin-1-yl]-2-{3-[(2R,6S)-2,6-dimethylmorpholine-4-carbonyl]-5,6-dihydrocyclopenta[c]pyrazol-1(4H)-yl}ethan-1-one] was run?
Its pIC50 is 6.93.

How did the pIC50 turn out when `Cc1c(C#N)cccc1N1CCN(C(=O)Cn2nc(C(=O)N3C[C@@H](C)O[C@@H](C)C3)c3c2CCC3)CC1` [Example 33, 3-[4-({3-[(2R,6S)-2,6-dimethylmorpholine-4-carbonyl]-5,6-dihydrocyclopenta[c]pyrazol-1(4H)-yl}acetyl)piperazin-1-yl]-2-methylbenzonitrile] was run?
Its pIC50 is 7.19.

How did the pIC50 turn out when `Cc1ccc(N2CCN(C(=O)Cn3nc(C(=O)N4C[C@@H](C)O[C@@H](C)C4)c4c3CCC4)CC2)cc1` [Example 34, 2-{3-[(2R,6S)-2,6-dimethylmorpholine-4-carbonyl]-5,6-dihydrocyclopenta[c]pyrazol-1(4H)-yl}-1-[4-(4-methylphenyl)piperazin-1-yl]ethan-1-one] was run?
Its pIC50 is 6.85.

How did the pIC50 turn out when `C[C@@H]1CN(C(=O)c2nn(CC(=O)N3CCN(c4cccc(F)c4F)CC3)c3c2CCC3)C[C@H](C)O1` [Example 35, 1-[4-(2,3-difluorophenyl)piperazin-1-yl]-2-{3-[(2R,6S)-2,6-dimethylmorpholine-4-carbonyl]-5,6-dihydrocyclopenta[c]pyrazol-1(4H)-yl}ethan-1-one] was run?
The pIC50 was 6.31.

With `COc1cc(F)cc(N2CCN(C(=O)Cn3nc(C(=O)N4C[C@@H](C)O[C@@H](C)C4)c4c3CCC4)CC2)c1` [Example 36, 2-{3-[(2R,6S)-2,6-dimethylmorpholine-4-carbonyl]-5,6-dihydrocyclopenta[c]pyrazol-1(4H)-yl}-1-[4-(3-fluoro-5-methoxyphenyl)piperazin-1-yl]ethan-1-one] as the molecule, how does the pIC50 read?
Its pIC50 is 7.26.

How did the pIC50 turn out when `COc1cc(N2CCN(C(=O)Cn3nc(C(=O)N4C[C@@H](C)O[C@@H](C)C4)c4c3CCC4)CC2)ccc1C` [Example 37, 2-{3-[(2R,6S)-2,6-dimethylmorpholine-4-carbonyl]-5,6-dihydrocyclopenta[c]pyrazol-1(4H)-yl}-1-[4-(3-methoxy-4-methylphenyl)piperazin-1-yl]ethan-1-one] was run?
The pIC50 was 6.63.

With `COc1ccc(N2CCN(C(=O)Cn3nc(C(=O)N4C[C@@H](C)O[C@@H](C)C4)c4c3CCC4)CC2)c(C)c1` [Example 38, 2-{3-[(2R,6S)-2,6-dimethylmorpholine-4-carbonyl]-5,6-dihydrocyclopenta[c]pyrazol-1(4H)-yl}-1-[4-(4-methoxy-2-methylphenyl)piperazin-1-yl]ethan-1-one] as the molecule, how does the pIC50 read?
The pIC50 was 6.91.

With `COc1cccc(N2CCN(C(=O)Cn3nc(C(=O)N4C[C@@H](C)O[C@@H](C)C4)c4c3CCC4)CC2)c1F` [Example 39, 2-{3-[(2R,6S)-2,6-dimethylmorpholine-4-carbonyl]-5,6-dihydrocyclopenta[c]pyrazol-1(4H)-yl}-1-[4-(2-fluoro-3-methoxyphenyl)piperazin-1-yl]ethan-1-one] as the molecule, how does the pIC50 read?
The pIC50 was 6.43.

`Cc1cc(N2CCN(C(=O)Cn3nc(C(=O)N4C[C@@H](C)O[C@@H](C)C4)c4c3CCC4)CC2)cc(C)c1Cl` [Example 40, 1-[4-(4-chloro-3,5-dimethylphenyl)piperazin-1-yl]-2-{3-[(2R,6S)-2,6-dimethylmorpholine-4-carbonyl]-5,6-dihydrocyclopenta[c]pyrazol-1(4H)-yl}ethan-1-one] was tested. Which pIC50 did it give?
Its pIC50 is 6.65.

`Cc1cc(F)cc(N2CCN(C(=O)Cn3nc(C(=O)N4C[C@@H](C)O[C@@H](C)C4)c4c3CCC4)CC2)c1` [Example 41, 2-{3-[(2R,6S)-2,6-dimethylmorpholine-4-carbonyl]-5,6-dihydrocyclopenta[c]pyrazol-1(4H)-yl}-1-[4-(3-fluoro-5-methylphenyl)piperazin-1-yl]ethan-1-one] was tested. Which pIC50 did it give?
The pIC50 was 6.61.

With `C[C@@H]1CN(C(=O)c2nn(CC(=O)N3CCN(c4ccc(Cl)cc4)CC3)c3c2CCC3)C[C@H](C)O1` [Example 42, 1-[4-(4-chlorophenyl)piperazin-1-yl]-2-{3-[(2R,6S)-2,6-dimethylmorpholine-4-carbonyl]-5,6-dihydrocyclopenta[c]pyrazol-1(4H)-yl}ethan-1-one] as the molecule, how does the pIC50 read?
Its pIC50 is 6.83.

How did the pIC50 turn out when `Cc1cc(Cl)ccc1N1CCN(C(=O)Cn2nc(C(=O)N3C[C@@H](C)O[C@@H](C)C3)c3c2CCC3)CC1` [Example 43, 1-[4-(4-chloro-2-methylphenyl)piperazin-1-yl]-2-{3-[(2R,6S)-2,6-dimethylmorpholine-4-carbonyl]-5,6-dihydrocyclopenta[c]pyrazol-1(4H)-yl}ethan-1-one] was run?
Its pIC50 is 7.46.

`C[C@@H]1CN(C(=O)c2nn(CC(=O)N3CCN(c4cc(F)c(F)cc4Cl)CC3)c3c2CCC3)C[C@H](C)O1` [Example 44, 1-[4-(2-chloro-4,5-difluorophenyl)piperazin-1-yl]-2-{3-[(2R,6S)-2,6-dimethylmorpholine-4-carbonyl]-5,6-dihydrocyclopenta[c]pyrazol-1(4H)-yl}ethan-1-one] was tested. Which pIC50 did it give?
The pIC50 was 6.59.

With `C[C@@H]1CN(C(=O)c2nn(CC(=O)N3CCN(c4ccc(F)c(F)c4)CC3)c3c2CCC3)C[C@H](C)O1` [Example 45, 1-[4-(3,4-difluorophenyl)piperazin-1-yl]-2-{3-[(2R,6S)-2,6-dimethylmorpholine-4-carbonyl]-5,6-dihydrocyclopenta[c]pryazol-1(4H)-yl}ethan-1-one] as the molecule, how does the pIC50 read?
The pIC50 was 6.63.

With `Cc1cc(F)ccc1N1CCN(C(=O)Cn2nc(C(=O)N3C[C@@H](C)O[C@@H](C)C3)c3c2CCC3)CC1` [Example 46, 2-{3-[(2R,6S)-2,6-dimethylmorpholine-4-carbonyl]-5,6-dihydrocyclopenta[c]pyrazol-1(4H)-yl}-1-[4-(4-fluoro-2-methylphenyl)piperazin-1-yl]ethan-1-one] as the molecule, how does the pIC50 read?
The pIC50 was 7.34.

How did the pIC50 turn out when `COc1ccc(N2CCN(C(=O)Cn3nc(C(=O)N4C[C@@H](C)O[C@@H](C)C4)c4c3CCC4)CC2)c(C)c1C` [Example 47, 2-{3-[(2R,6S)-2,6-dimethylmorpholine-4-carbonyl]-5,6-dihydrocyclopenta[c]pyrazol-1(4H)-yl}-1-[4-(4-methoxy-2,3-dimethylphenyl)piperazin-1-yl]ethan-1-one] was run?
The pIC50 was 7.08.

How did the pIC50 turn out when `Cc1c(N2CCN(C(=O)Cn3nc(C(=O)N4C[C@@H](C)O[C@@H](C)C4)c4c3CCC4)CC2)ccc(F)c1F` [Example 49, 1-[4-(3,4-difluoro-2-methylphenyl)piperazin-1-yl]-2-{3-[(2R,6S)-2,6-dimethylmorpholine-4-carbonyl]-5,6-dihydrocyclopenta[c]pyrazol-1(4H)-yl}ethan-1-one] was run?
The pIC50 was 7.87.

How did the pIC50 turn out when `Cc1ccc(N2CCN(C(=O)Cn3nc(C(=O)N4C[C@@H](C)O[C@@H](C)C4)c4c3CCC4)CC2)c(C)c1` [Example 50, 2-{3-[(2R,6S)-2,6-dimethylmorpholine-4-carbonyl]-5,6-dihydrocyclopenta[c]pyrazol-1(4H)-yl}-1-[4-(2,4-dimethylphenyl)piperazin-1-yl]ethan-1-one] was run?
Its pIC50 is 7.82.

How did the pIC50 turn out when `C[C@@H]1CN(C(=O)c2nn(CC(=O)N3CCN(c4ccc(C(F)(F)F)cc4)CC3)c3c2CCC3)C[C@H](C)O1` [Example 51, 2-{3-[(2R,6S)-2,6-dimethylmorpholine-4-carbonyl]-5,6-dihydrocyclopenta[c]pyrazol-1(4H)-yl}-1-{4-[4-(trifluoromethyl)phenyl]piperazin-1-yl}ethan-1-one] was run?
The pIC50 was 6.76.

`C[C@@H]1CN(C(=O)c2nn(CC(=O)N3CCN(c4cccc5c4CCCC5)CC3)c3c2CCC3)C[C@H](C)O1` [Example 52, 2-{3-[(2R,6S)-2,6-dimethylmorpholine-4-carbonyl]-5,6-dihydrocyclopenta[c]pyrazol-1(4H)-yl}-1-[4-(5,6,7,8-tetrahydronaphthalen-1-yl)piperazin-1-yl]ethan-1-one] was tested. Which pIC50 did it give?
The pIC50 was 7.98.

How did the pIC50 turn out when `Cc1cc(N2CCN(C(=O)Cn3nc(C(=O)N4C[C@@H](C)O[C@@H](C)C4)c4c3CCC4)CC2)ccc1F` [Example 53] was run?
Its pIC50 is 7.11.

`C[C@@H]1CN(C(=O)c2nn(CC(=O)N3CCN(c4ccc(Cl)c(F)c4)CC3)c3c2CCC3)C[C@H](C)O1` [Example 54, 1-[4-(4-chloro-3-fluorophenyl)piperazin-1-yl]-2-{3-[(2R,6S)-2,6-dimethylmorpholine-4-carbonyl]-5,6-dihydrocyclopenta[c]pyrazol-1(4H)-yl}ethan-1-one] was tested. Which pIC50 did it give?
Its pIC50 is 7.24.

`C[C@@H]1CN(C(=O)c2nn(CC(=O)N3CCN(c4ccccc4Cl)CC3)c3c2CCC3)C[C@H](C)O1` [Example 55, 1-[4-(2-chlorophenyl)piperazin-1-yl]-2-{3-[(2R,6S)-2,6-dimethylmorpholine-4-carbonyl]-5,6-dihydrocyclopenta[c]pyrazol-1(4H)-yl}ethan-1-one] was tested. Which pIC50 did it give?
The pIC50 was 6.61.
